# In patent US20130012591A1, “PROPHYLAXIS OF SKIN CANCER WITH RETINAMIDES” (Revision Therapeutics, Inc., priority 2009, published 2013):
# “Also recorded” adds a separate entry of the source.
# Key:
# patients with dry AMD = experiment: Incidence of all neoplasms and basal cell carcinoma in patients with dry AMD (Example 6); assay type: in vivo, human; conditions: for Basal Cell Carcinoma, number of patients: placebo 5 of 82; for Basal Cell Carcinoma, incidence: placebo 6.1%; for All neoplasms, number of patients: placebo 14 of 82; for All neoplasms, incidence: placebo 17.1%
# Protocol: Patients with dry AMD were selected. Patients are divided into three groups. Group I (n=82) received a placebo. Group II (n=80) received fenretinide at a dose of 100 mg/day. Group III (n=84) received fenretinide at a dose of 300 mg/day. Incidence of all neoplasms and basal cell carcinoma was determined for each group.
# [1] = tested on: human that suffers from geographic atrophy (GA), secondary to age related macular degeneration (AMD); experiment: Rate of skin neoplasms/cancer in patients with geographic atrophy secondary to AMD (Example 1); assay type: in vivo; conditions: orally 100 mg/day, placebo 9.8%
# Protocol: Two patient cohorts were selected. Each member of each patient cohort was a human that suffers from geographic atrophy (GA), secondary to age related macular degeneration (AMD). The mean concentration of serum retinol binding protein in the patients at baseline was approximately 60 μg/mL. The average concentration of serum retinol binding protein in normal individuals of the same type is about 25 μg/mL to about 40 μg/mL. In the first patient population, individuals were orally administered 100 mg/day fenretinide. In the second patient population, individuals were orally administered a placebo. The placebo group developed skin neoplasms (including basal cell carcinoma, squamous cell carcinoma, and/or melanoma) at a rate of 9.8%. In the first patient population, individuals developed cancer (including basal cell carcinoma, squamous cell carcinoma, and/or melanoma) at a rate of 2.5%. […] FIG. 4 illustrates the cytotoxicity of fenretinide on the melanoma cell line (B16 (RL)). FIG. 5 illustrates the effect of fenretinide and compounds of Formula II (designated SIR-1001 and SIR-1005) on two human melanoma cell lines (M207 and SK-MEL28).
# Sigma 1 receptor = biological target: T1, Sigma 1 receptor (Cavia porcellus, UniProt Q60492); experiment: Sigma 1 receptor binding assay with [3H](+)-pentazocine; conditions: competing ligand 10 μM; [3H](+)-pentazocine 1.0 nM or 0-10 nM; guinea pig brain membrane
# T1 construct: guinea pig brain membrane aliquots were thawed, and then suspended at a concentration of 1 mg protein/ml; from tissue; host or cells: guinea pig brain membranes
# T1 sequence (Q60492 whole entry): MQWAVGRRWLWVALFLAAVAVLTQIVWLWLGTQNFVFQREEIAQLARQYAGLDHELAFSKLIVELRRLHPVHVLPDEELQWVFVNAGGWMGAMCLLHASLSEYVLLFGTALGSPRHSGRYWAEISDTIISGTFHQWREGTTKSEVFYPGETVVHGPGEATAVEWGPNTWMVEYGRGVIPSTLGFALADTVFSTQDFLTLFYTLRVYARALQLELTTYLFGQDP
# Protocol: Sigma 1 receptor binding assays were performed according to DeHaven-Hudkins et al. (1992). In brief, guinea pig brain membrane aliquots were thawed, and then suspended at a concentration of 1 mg protein/ml by adding fresh sigma 1 assay buffer (50 mM Tris-HCl; pH 7.4, 25° C.). Each glass assay tube was kept at a final volume of 1.0 ml, contained 0.25 mg protein, and was incubated for 150 min at 37° C. with [3H](+)-pentazocine. [3H](+)-Pentazocine was used at either a single concentration (1.0 nM, FIG. 6) or at a range of concentrations (0-10 nM, FIG. 7). Nonspecific binding was defined by haloperidol (1.0 μM). Competing ligand concentration (e.g., fenretinide) was 10 μM. Assays were terminated by addition of ice-cold […] (5 ml) and filtration, using a cell harvester (Brandel, Gaithersburg, Md.), through glass fiber filters (GF/B) that had been pretreated with polyethyleneimine (0.5%) for 60 min. Tubes and filter discs were washed (3×3.5 ml) with ice-cold assay buffer, and the filter discs dried under vacuum. Scintillation counting was carried out after incubation of the discs with cocktail for at least 18 h.
# [2] = tested on: complement genes (Crry, CFH, MCP-1, CD59a, Daf2, and CD59b); experiment: Expression of complement genes in ocular tissue by RT-PCR; assay type: in vivo, BALB/c mice; conditions: RT-PCR normalized to 18S RNA
# Protocol: The effects of fenretinide on expression of complement genes was studies in […].
# Fenretinide supplemented chow ([…]), or control chow, was fed to pregnant mice. Birthed litters were maintained for 4 weeks. Mice were euthanized after 4 weeks and ocular tissue was prepared for RNA extraction. Expression of complement genes was determined by RT-PCR. Data was normalized to expression of 18S RNA.
# Litters of mice were separated into 2 groups just prior to weaning (4 weeks of age). Mice in Group I were fed fenretinide supplemented chow (1 g fenretinide/kg chow) for 7 weeks. Mice in Group II were fed control chow for 7 weeks. Mice were euthanized after 7 weeks and ocular tissue was prepared for RNA extraction. Expression of complement genes was determined by RT-PCR. Data was normalized to expression of 18S RNA.
structure (smiles),measurement,setting,value
"CC1=C(/C=C/C(C)=C/C=C/C(C)=C/C(=O)Nc2ccc(O)cc2)C(C)(C)CCC1 [fenretinide, N-(4-hydroxyphenyl)retinamide]","Basal Cell Carcinoma, number of patients","patients with dry AMD; 100 mg/day fenretinide, n = 80",2
same,"Basal Cell Carcinoma, incidence","patients with dry AMD; 100 mg/day fenretinide, n = 80",2.5%
same,"All neoplasms, number of patients","patients with dry AMD; 100 mg/day fenretinide, n = 80",4
same,"All neoplasms, incidence","patients with dry AMD; 100 mg/day fenretinide, n = 80",5.0%
same,"Basal Cell Carcinoma, number of patients","patients with dry AMD; 300 mg/day fenretinide, n = 84",3
same,"Basal Cell Carcinoma, incidence","patients with dry AMD; 300 mg/day fenretinide, n = 84",3.6%
same,"All neoplasms, number of patients","patients with dry AMD; 300 mg/day fenretinide, n = 84",10
same,"All neoplasms, incidence","patients with dry AMD; 300 mg/day fenretinide, n = 84",11.9%
same,"rate at which individuals developed cancer (including basal cell carcinoma, squamous cell carcinoma, and/or melanoma)",[1],2.5%
same,binding of [3H]Pentazocine to Sigma-1 receptor in the presence of competing ligand,Sigma 1 receptor,reduced binding
same,"expression of complement genes Crry, CFH, MCP-1, CD59a, CD59b, Daf2 in the eye","[2]; high dose: supplemented chow (Ig fenretinide/kg chow) fed to pregnant mice, litters maintained 4 weeks, FIG. 9",down-regulation; also recorded: down-regulates
same,"expression of complement genes Crry, CFH, MCP-1, CD59a, CD59b, Daf2 in the eye","[2]; low dose: chow 1 g fenretinide/kg for 7 weeks from weaning, FIG. 8",up-regulation; also recorded: up-regulates
